Results taken from US10865188B2, “Dibenzo azepine compounds and their use in the treatment of otic diseases and disorders” (Pipeline Therapeutics, Inc., priority 2015, dated 2020).
Where two headings read alike, the source gives them in different places.

Key:
mice = experiment: Auditory brainstem response (ABR) hearing threshold; type: in vivo; conditions: formulations of Examples 3(c) and 3(d) (2% w/v crystalline, poloxamer 407)
Method: Surgery was performed on naïve mice or mice with noise or pharmacologically-damaged ears. The animals were anesthetized with isoflurane and an 8 mm retroauricular incision was made to the lower caudal edge of the pinna. The skin was retracted and the fatty tissue was blunt dissected away from where the facial nerve and muscle come together. The muscle was retracted to reveal an area in the tympanic bulla where the bone was thin. A 30 g needle was used to drill a hole in the exposed thin portion of the otic bulla. A Hamilton syringe equipped with a 32 g blunt needle was inserted into the opening of the otic bulla. The drug formulation was delivered by injection and the needle removed. Wound closure was made with tissue glue.
Naïve mice or mice at various times after either noise or pharmacological deafening were anesthetized with ketamine/xylazine/acepromazine and the auditory brainstem response was determined in both ears using a Tucker Davis (Alachua, Fla.) RZ6 apparatus. The mice were exposed to clicks or pure tones of 4, 8, 16, 24 and 32 kHz at 90-10 dB in 10 dB descending steps and the hearing threshold was determined.

[1] = Guinea pig PK after transtympanic delivery (perilymph and cochlea, LC/MS/MS); type: in vivo; conditions: for concentration at 1 day / concentration at 7 day / concentration at 14 day / concentration at 28 day / concentration at 42 day / concentration at 56 day: male, Hartley, other: transtympanic, 30 μL, 30 μL transtympanic; for concentration at 1 day: Day 1, LLOQ = 0.08 μM; for concentration at 7 day: Day 7, LLOQ = 0.08 μM; for concentration at 14 day: Day 14, LLOQ = 0.08 μM; for concentration at 28 day: Day 28, LLOQ = 0.08 μM; for concentration at 42 day: Day 42, LLOQ = 0.08 μM; for concentration at 56 day: Day 56, LLOQ = 0.08 μM
From the text: (§1) Male Hartley guinea pigs (300-350 g) were anesthetized with ketamine and xylazine. Thirty microliters of an aqueous pharmaceutical composition of the instant embodiments was delivered transtympanically to deposit the drug to the round window membrane. Delivery was unilateral. The animals were placed in a warm chamber in a lateral recumbent position keeping the dosed ear side up until they recover from anesthesia.
At various timepoints after administration, the animals were euthanized by CO2 inhalation. Blood and CSF were collected and stored at −80° C. The animals were decapitated, the temporal bones removed and the bulla opened to expose the otic capsule. Ipsilateral and contralateral perilymph were collected from the apex using a microcapillary tube. The ipsilateral cochlea was removed from the otic capsule and stored at −80° C. All tissues collected were analyzed using LC/MS/MS for test compound concentration as follows. Analytical standards were prepared by spiking known concentrations of the test compound stock solutions into matrices such as plasma or artificial CSF. Fixed amounts of tissues collected and spiked standards were precipitated with acetonitrile containing buspirone as an internal standard. The precipitated samples were centrifuged at 4000 g for 10 minutes at 4° C. The supernatants were analyzed using LC-MS/MS. The LC-MS/MS system was set up using the AB Sciex 4000 Qtrap (AB Sciex, Framingham, Mass.) equipped with Agilent 1200 series HPLC and CTC PAL Autosampler (Agilent Technologies, Santa Clara, Calif.).
Liquid compositions described herein were evaluated using the method described in Part E of the Biological Function section provided above. The liquid compositions prepared as described in Example 5(a)-5(d) were each drawn into a 1 mL syringe. Using the filled 1 mL syringe, the liquid composition was back-filled at 5° C. into a 100 μL Hamilton syringe adapted with 28 gauge needle. The Hamilton syringe was then allowed to warm to room temperature.
as §1, with “the above liquid” for “an aqueous pharmaceutical”, “were” for “of the instant embodiments was”, “The delivery” for “Delivery”, “recovered” for “recover”
At various timepoints after administration, the animals were euthanized by CO2 inhalation. Blood and cerebrospinal fluid were collected and stored at −80° C. The animals were decapitated, the temporal bones removed and the bulla were opened to expose the otic capsule. Ipsilateral and contralateral perilymph were collected from the apex using a microcapillary tube. The ipsilateral cochlea was removed from the otic capsule and was stored at −80° C. All tissues collected were analyzed using LC/MS/MS as described in Part E of the Biological Function section above.
The concentrations of Compound I and Compound II were measured using LC/MS/MS in both the perilymph fluid and the cochlea tissue after a transtympanic injection of an instant formulation of either the crystalline form or the amorphous form at various time points. […] Concentration of the instant compounds in the perilymph and/or cochlea tissue was above the human NSC EC50 for Atoh1, an indicator that the subject compounds may be efficacious in hair cell regeneration and hearing restoration in human. […] Table 3 below lists the results for the studies using aqueous formulations of crystalline Compound I while Table 4 below lists those for aqueous formulations of crystalline Compound II. The results for aqueous formulations of crystalline Compound I are also graphically shown in FIG. 5A and FIG. 5B while the results for aqueous formulations of crystalline Compound II are graphically shown in FIG. 6A and FIG. 6B.

HES5 = experiment: Human neural stem cell assay, Hes5 gene expression (real-time PCR); type: cell-based; conditions: human neural stem cells, 7 point CRC, read-out: hNSC HES5 IC50
Method: (§2) Neural stem cells (NSC) were derived from embryonic stem cells using a published protocol (Yuan et al., Mar. 2, 2011, PLoS ONE, 6(3):e17540). Cells were sorted and characterized at passage 3 and were expanded. Cells were then frozen at passage 5. Cells were maintained in NSC media (DMEM/F12, N2 (1×), B27(1×) (Invitrogen), and Pen/Strep (1×) (Life Technologies) with 20 ng/ml bFGF (BD Bioscience/Corning)). On day 1, cells were plated in 96 well plates that have been previously coated with poly-ornithin and laminin, 60,000 cells/well in 100 μl of media. On day 2, spent media was removed, and 180 μl of fresh media was added to the cells. Later that same day (day 2), cells were treated with 20 μl of NSC media containing test compounds (7 point CRC). On day 3, spent media was removed and 140 μl of RLT/bME was added to the cells. RNA was extracted using the QiaCube (Qiagen®, Germantown, Md., USA) using the total RNA extraction+DNAse protocol. RNA was then reverse-transcribed to cDNA using iScript (Bio-Rad, Hercules, Calif., USA). cDNA was then used for real-time PCR analysis using iTaq Sybergreen (BioRad). Expression of Atoh1, Hes5, Hes1, Myosin7a genes was evaluated using CFX96 or CFX384 (Bio-Rad). HPRT1 was used as a reference gene. Analysis was done using Microsoft® Excel® and CBIS (ChemInnovation Software, Inc., San Diego, Calif., USA). […]

Atoh1 = experiment: Human neural stem cell assay, Atoh1 gene expression (real-time PCR); type: cell-based; conditions: human neural stem cells, 7 point CRC, read-out: hNSC Atoh1 EC50
Method: as §2

[2] = cochlea, Amorphous form (Example 5(d)), read-out: Cochlea Average concentration
[3] = cochlea, Crystalline form (Example 5(c)), read-out: Cochlea Average concentration
[4] = perilymph, Amorphous form (Example 5(d)), read-out: perilymph Average concentration
[5] = perilymph, Crystalline form (Example 5(c)), read-out: Perilymph Average concentration

In the case of `CN1C(=O)[C@@H](NC(=O)[C@](C)(F)C(=O)NCC(F)(F)C(F)(F)F)c2ccccc2-c2ccccc21` [Compound II, (2R)-2-fluoro-2-methyl-N—[(S)-5-methyl-6-oxo-6,7-dihydro-5H-dibenzo[b,d]azepin-7-yl]-N′-(2,2,3,3,3-pentafluoropropyl)malonamide], the “ABR Threshold Improvement” value (mice; 16 kHz) is reported as 8 dB, the “ABR Threshold Improvement” value (mice; 24 kHz) is reported as 11 dB and the “ABR Threshold Improvement” value (mice; 32 kHz) is reported as 7 dB. For the same molecule, the “concentration in the perilymph and the cochlea compared with the human NSC EC50 for Atoh1” value ([1]; dosed as the amorphous form, transtympanic) was “above the human NSC EC50 for Atoh1 at 1 day and 7 days”, the “concentration in the perilymph and the cochlea compared with the human NSC EC50 for Atoh1” value ([1]; dosed as the crystalline form, transtympanic) was “above the human NSC EC50 Atoh1 from day 1 to day 42” and the concentration at 1 day [1, 2] was 829 µM. The concentration at 7 day [1, 2] was 18.1 µM, the concentration at 14 day [1, 2] was 0 µM and the concentration at 28 day [1, 2] was 0 µM. The concentration at 1 day [1, 3] was 5280 µM, the concentration at 7 day [1, 3] was 46.1 µM and the concentration at 14 day [1, 3] was 222 µM. For the same molecule, the concentration at 28 day [1, 3] was 7.6 µM, the concentration at 42 day [1, 3] was 0.6 µM and the concentration at 56 day [1, 3] was 0 nM. For the same molecule, the concentration at 1 day [1, 4] was 159 µM, the concentration at 7 day [1, 4] was 178 µM and the concentration at 14 day [1, 4] was 0 µM. It also gave a concentration at 28 day [1, 4] of 0 µM, a concentration at 1 day [1, 5] of 502 µM and a concentration at 7 day [1, 5] of 26 µM. For the same molecule, the concentration at 14 day [1, 5] was 26 µM, the concentration at 28 day [1, 5] was 2.2 µM and the concentration at 42 day [1, 5] was 0.3 µM. The concentration at 56 day [1, 5] was 0 nM, the “exposure to the inner ear, crystalline formulation versus respective amorphous formulation” value ([1]; transtympanic, formulations of Example 5(a)-5(d)) was “longer exposure” and the IC50 (HES5) was 23 nM. It also gave an EC50 (Atoh1) of 23 nM.
